In patent US20260028364A1, “CATIONIC CHROMENONES AND THEIR USE IN ONCOLOGY” (FLORATEK PHARMA S.A., priority 2022, published 2026):

What was measured:
Type in all cases: cell-based
MCF-7 = assay: CellTiter-Glo cell viability, MCF-7; settings: Homo sapiens, MCF7; MCF-7 cells, 72 h with compound
Method: (§1) Antitumor activity against a panel of cancer cell lines Antitumor activity of the compounds was assessed by using the CellTiter-Glow® Luminescent Cell Viability assay (Promega #G7572) according to the manufacturer's instructions. The compounds were tested at 5 or 6 concentrations in 1:2 dilution increments (highest concentration 10 µM) in triplicate well conditions.
(§2) Tumor cells were grown at 37° C. in a humidified atmosphere with 5% CO2 in RPMI 1640 or DMEM medium, supplemented with 10% (v/v) fetal calf serum and 50 μg/ml gentamicin for up to 20 passages, and were passaged once or twice weekly. Cells were harvested using TrypLE or PBS buffer containing 1 mM EDTA, and the percentage of viable cells is determined using a cell counter.
(§3) Cells were harvested from exponential phase cultures, counted and plated in 96 well flat-bottom microtiter plates at a cell density depending on the cell line's growth rate (4,000-20,000 cells/well depending on the cell line's growth rate) in RPMI 1640 or DMEM medium supplemented with 10% (v/v) fetal calf serum and 50 μg/ml gentamicin (140 μl/well). Cultures were incubated at 37° C. and 5% CO2 in a humidified atmosphere. After 24 h, 10 μl of test compounds or control medium are added, and left on the cells for another 72 h. Compounds were serially diluted in DMSO, transferred in cell culture medium, and added to the assay plates. The DMSO concentration was kept constant at <0.2% v/v across the assay plate. Viability of cells was quantified by the CellTiter-Glow® Luminescent Cell Viability assay (Promega #G7572). Luminescence was measured with the microplate luminometer (En Vision Perkin Elmer).
(§4) Sigmoidal concentration-response curves were fitted to the data points (test-versus-control, T/C values) obtained for each tumor model using Graph Pad prism 5.02 software. IC50 values are reported as absolute IC50 values, being the concentration of test compound at the intersection of the concentration-response curves with T/C=50%.

MIA-PaCa-2 = assay: CellTiter-Glo cell viability, MIA-PaCa-2; settings: Homo sapiens; MIA-PaCa-2 cells, 72 h with compound
Method: as §1, §2, §3, §4

NFKB = assay: SelectScreen CellSensor pathway inhibition, NFKB; settings: Homo sapiens; NFKB-bla Jurkat, stimulus TNF-alpha
Method: Inhibition of various cellular pathways known to be involved in malignancy was tested using the SelectScreen Cell-based Pathway Profiling GeneBLAzer™ cell signaling pathway specific CellSensor™ cell lines ((Thermo Fisher). The assay is based on a beta-lactamase reporter activity which is modulated and can be measured quantitatively and selectively with the LiveBLAzer™-FRET B/G Loading Substrate. SelectScreen Cell-Based Pathway Profiling Service uses XLfit from IDBS. The dose response curve is curve fit to model number 205 (sigmoidal dose-response model). Custom logic was built by Thermo Fisher for the data analysis tool to address the different compound characteristics that can be observed with functional assays.
NFKB—NFKB-bla Jurkat—Inhibitor Screen, Activated by TNF-Alpha
NFKB-bla Jurkat cells are thawed and resuspended in Assay Media (DMEM, 10% dialyzed FBS, 25 mM HEPES pH 7.3, 0.1 mM NEAA, 100 U/mL/100 μg/mL Pen/Strep) to a concentration of 625,000 cells/mL. […] 4 μL of 10×control activator TNF-alpha at the pre-determined EC80 concentration is added to wells containing the control inhibitor or compounds.
The plate is incubated for 5 hours at 37° C./5% CO2 in a humidified incubator. […] The plate is read on a fluorescence plate reader.

Daudi = assay: CellTiter-Glo cell viability, Daudi; settings: Homo sapiens; Daudi cells, 72 h with compound
Method: as §1, §2
as §3, with “After 24 h, 10 μl of test compounds or control medium are added, and left on the cells for another 72 h. Compounds were serially diluted in DMSO, transferred in cell culture medium, and added to the assay plates. The DMSO concentration was kept constant at <0.2% v/v across the assay plate.” left out, “Elmer). […]” for “Elmer).”

SHP-77 = assay: CellTiter-Glo cell viability, SHP-77; settings: Homo sapiens, SHP77; SHP-77 cells, 72 h with compound
Method: as §1, §2
as §3, with “After 24 h, 10 μl of test compounds or control medium are added, and left on the cells for another 72 h. Compounds were serially diluted in DMSO, transferred in cell culture medium, and added to the assay plates. The DMSO concentration was kept constant at <0.2% v/v across the assay plate.” left out, “Elmer). […]” for “Elmer).”

Kelly = assay: CellTiter-Glo cell viability, Kelly; settings: Kelly cells, 72 h with compound
Method: as §1, §2, §3, §4

HCC-15 = assay: CellTiter-Glo cell viability, HCC-15; settings: HCC15; HCC-15 cells, 72 h with compound
Method: as §1, §2, §3, §4

NCI-H1299 = assay: CellTiter-Glo cell viability, NCI-H1299; settings: Homo sapiens, NCI-H1299; H1299 cells, 72 h with compound
Method: as §1, §2, §3, §4

MeWo = assay: Caspase-Glo 3/7 apoptosis assay, MeWo; settings: MeWo cells, 10 μM, 24 h
Method: Apoptosis activity was evaluated using Caspase-Glo 3/7 Assay kit (Promega-G8091) according to the manufacturer's instructions. Cells were grown as above and harvested from exponential phase cultures, counted and plated in 96 black well flat-bottom microtiter plates at a cell density depending on the cell line's growth rate (3,000-10,000 cells/well depending on the cell line's growth rate). Following an overnight incubation, compounds were added to the cell plates at various concentrations (highest at […]) with the DMSO concentration maintained at 0.1% for a 24 h period treatment. 100 μL of Caspase-Glo 3/7 Reagent was added to each well of 96-well plate containing 100 μL culture medium, and after 30 min at room temperature, luminescence was measured with the microplate luminometer (EnVision Perkin Elmer). The induced relative Caspase 3/7 activity of the tested compounds was determined by the following formula: Relative Caspase 3/7 activity (fold increase)=(RLU compound−RLU blank)/(RLU control−RLU blank).

IC50 (MCF-7): 0.021 µM
IC50 (MIA-PaCa-2): 0.022 µM
IC50 (NFKB): 1.53 µM
IC50 (Daudi): 0.71 µM
IC50 (HCC-15): 0.01 µM
IC50 (NCI-H1299): 0.04 µM
Structure (SMILES): COc1ccc2c(=O)c(-c3ccc(CCCC[P+](c4ccccc4)(c4ccccc4)c4ccccc4)cc3)coc2c1OC.[Br-] [SND470, (4-(4-(7,8-Dimethoxy-4-oxo-4H-chromen-3-yl)phenyl)butyl)triphenylphosphonium bromide]
IC50 (SHP-77): 0.92 µM
IC50 (Kelly): 0.012 µM
Fold activation of Caspase 3/7 (MeWo): 2.55 Fold
